For this assay, the system named is NIH3T3-HGL HSF-1 response element luciferase, 48 h. Nature of the assay: HSF-1 reporter activators over prolonged exposure, confirmation, cell-based, mouse, luciferase, cherry-pick, dose (AID 602296).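 Also: test compounds applied by themselves with no MG132 co-treatment.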

Inconclusive results are not listed. Active and inactive are the calls of the source.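 The calls were made as follows: active = fitted activation curve crossing 40% at a concentration no higher than the sample's top valid tested dose; inconclusive = flat fitted curve at 30% to 70% activation, or poor curve fit; inactive = signal decrease, flat curve within 30%, or the rest.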 Where only a bound is given, the exact number is not on record here.

For the compound `NC(=O)CCN1CCN(CCOC2Cc3cc(Cl)ccc3Sc3ccccc32)CC1` (configuration not stated), the AC40 was > 26 µM (inactive).
For `COc1ccc(NC(=S)Nc2ccccc2SC)c(OC)c1`, the AC40 was 24.2 µM.
In the case of `CC(C)NCC(O)COCc1ccc(Cl)cc1` (configuration not stated), the AC40 was > 26 µM (inactive).
With `O=C(N/N=C/c1ccncc1)c1cc2ccccc2cc1O`, the AC40 is 25.2 µM.
Consider `CCCn1c(SCc2nc3sc(C)c(C)c3c(=O)[nH]2)nc2ccccc2c1=O`, for which the AC40 was > 26 µM (inactive).
With `O=c1[nH]n(CC2COC3(CCCCC3)O2)c(=O)c2ccccc12` (configuration not stated) the figure was 5.22 µM; with `S=c1sc2c(Cl)ncnc2n1-c1ccccc1`, > 12 µM (inactive).
With `S=C(NC1CCCCC1)NC1CC2C=CC1C2` (configuration not stated) the figure was > 26 µM (inactive); with `COC(=O)c1nnn(CC(=O)NC(=O)Nc2ccc(F)cc2)c1C(=O)OC`, > 26 µM (inactive); with `Cc1ccccc1CC(=O)NC1CCCc2ccccc21` (configuration not stated), > 26 µM (inactive).
For the compound `Cc1ccc(C(=O)OCC(=O)c2ccc(Cl)s2)s1`, the AC40 is 15.1 µM.
Turning to `CC1(C)CC(=O)C(=Cc2cn(-c3ccccc3)nc2-c2ccccc2)C(=O)C1`, the AC40 was 14 µM.
Regarding `CCOC(=O)c1sc2nc(C)nc(SCC(=O)NC3CCS(=O)(=O)C3)c2c1C` (configuration not stated), the AC40 is > 26 µM (inactive).
Then `N#C/C(C(=O)NCc1ccccc1)=C1/N=C(NC(=O)c2ccco2)c2ccccc21`, with > 26 µM (inactive); and `CCOC(=O)c1cnc2ccc(C)cc2c1Sc1ccc(F)cc1`, with > 12 µM (inactive).
On to `COc1ccc(NS(=O)(=O)c2cc(NC(=O)c3cnccn3)ccc2N2CCCC2)cc1`, for which the AC40 was > 26 µM (inactive).
Take `NC(=O)c1cc2cc(Br)ccc2oc1=NCc1ccccc1`: the AC40 was > 26 µM (inactive).
On to `O=C(CCCC1=NS(=O)(=O)c2ccccc2N1)N1CCN(c2ccccc2)CC1`, for which the AC40 is > 26 µM (inactive).
With `Fc1cc(NCc2ccccc2)nc(NCc2ccccc2)n1`, the AC40 is 9.52 µM.
Regarding `O=[N+]([O-])c1ccc(Sc2ccccc2)nc1`, the AC40 is > 26 µM (inactive).
Consider `O=C1c2ccccc2C(=O)N1CCC(=O)N1CCCc2ccccc21`, for which the AC40 is > 26 µM (inactive).
Consider `COc1ccc(OCc2nnnn2-c2ccccc2)cc1`, for which the AC40 was 25.7 µM.
With `O=C(Nc1ccccc1C(=O)OCC(=O)c1c[nH]c2ccccc12)c1ccco1`, the AC40 was > 26 µM (inactive).
Then `CCOC(=O)C1CCCN(C(=O)c2sc3nc(C)nc(N(CC)CC)c3c2C)C1` (configuration not stated), with > 26 µM (inactive); and `CN(C)C(CNC(=O)CCC(=O)c1ccc(Br)cc1)c1ccccc1` (configuration not stated), with > 26 µM (inactive); and `COC(=O)c1ccc(N(CC(=O)NC2CCCCC2)C(=O)CNC(=O)c2ccco2)cc1`, with > 26 µM (inactive).
With `O=C(c1ccc2c(=O)n(C3CCCC3)c(=S)[nH]c2c1)N1CCc2ccccc21`, the AC40 is > 26 µM (inactive).
For the compound `CN(/C(=N\S(=O)(=O)c1ccccc1)c1ccccc1)c1ccc(O)cc1`, the AC40 is > 26 µM (inactive).
Then `NC(=O)c1nn(-c2ccccc2)nc1NC(=O)CN1CCCCC1`, with > 26 µM (inactive).
As to `CCC(=O)Nc1cccc(C(=O)/C=C/c2ccc(F)cc2)c1`, the AC40 is 11.2 µM.
As for `Cc1cccc(N=Nc2c(C)c(C#N)c(O)[nH]c2=O)c1`, the AC40 is > 26 µM (inactive).
For the compound `COc1cc2c(cc1NC(=O)COC(=O)[C@@H](NS(=O)(=O)c1ccccc1)C(C)C)oc1ccccc12`, the AC40 was > 26 µM (inactive).
`CCN(CC(=O)Nc1ccc(NC(C)=O)cc1)Cc1c(O)ccc2cc(Br)ccc12`: the AC40 is 25.2 µM.
For `CCOC(=O)Nc1ccc(C(=O)Oc2ccccc2)c(O)c1`, the AC40 was 14.2 µM.
With `COc1ccc(-n2cnnc2SCC(=O)N(C)C2CCS(=O)(=O)C2)cc1` (configuration not stated), the AC40 is > 26 µM (inactive).
Take `Cc1cccc(NCc2nc3ccccc3n2C)c1`: the AC40 is 1.61 µM.
In the case of `Cc1cc(C(=O)N2CCN(c3ccccn3)CC2)c(C)o1`, the AC40 is > 26 µM (inactive).
With `Cc1ccccc1-n1nnc2c(=O)oc3ccccc3c21` the figure was > 26 µM (inactive); with `COCCCN(CC(=O)O)S(=O)(=O)c1cccc(Cl)c1`, > 26 µM (inactive).
In the case of `CC(=O)N1N=C(c2ccccc2)CC1c1ccccc1[N+](=O)[O-]` (configuration not stated), the AC40 was 16 µM.
For `CN1CCN(NC(=O)/C=C/c2ccc(Br)cc2)CC1`, the AC40 is > 26 µM (inactive).
`CC(=O)Nc1cccc(-n2nnc(SCC(=O)Nc3ccc(F)c(Cl)c3)n2)c1`: the AC40 was > 26 µM (inactive).
Take `C#CC[N+]1(CC#Cc2ccccc2)CCCCC1`: the AC40 was > 26 µM (inactive).
On to `COCCCNCCOc1ccc(C)cc1[N+](=O)[O-]`, for which the AC40 is > 26 µM (inactive).
For `COC(=O)/C=C1/N/C(=N\c2nc(C)cc(C)n2)N(c2ccc(C)c(C)c2)C1=O`, the AC40 was > 26 µM (inactive).
Then `Cc1ccc(-n2c(SCC(=O)Nc3cc(S(=O)(=O)N4CCOCC4)ccc3Cl)nc3ccccc3c2=O)cc1`, with 16 µM; and `O=C1NC(=O)[C@]2(Cc3ccccc3N3CCN(c4ccccc4)CC32)C(=O)N1Cc1ccccc1` (some centres not stated), with 2.51 µM.
`CCN(CC)S(=O)(=O)c1ccc(C(=O)NN(C)C2=NS(=O)(=O)c3ccccc32)cc1`: the AC40 was > 26 µM (inactive).
For `C=CCN(C(=O)CCC(=O)Nc1cc(C)on1)C(C(=O)NC(C)(C)C)c1cccc(OC)c1OC` (configuration not stated), the AC40 was > 26 µM (inactive).
Consider `COc1ccc(-n2cc(CNCc3cccnc3)c(-c3cccc(F)c3)n2)cc1`, for which the AC40 is > 26 µM (inactive).
As for `COc1ccc(C2C(C(C)=O)=C(O)C(=O)N2c2ccc(C)cc2)cc1` (configuration not stated), the AC40 is > 26 µM (inactive).
For `Nc1nc(SCC(=O)Nc2ccc([N+](=O)[O-])cc2Br)n[nH]1`, the AC40 is > 26 µM (inactive).
As for `COc1cccc(N=CC2=C(O)CC(C)(C)CC2=O)c1`, the AC40 is > 26 µM (inactive).
On to `CCOc1ccc(-n2cc(C(=O)N3CCC(C)CC3)c3cc(OC)c(OC)cc3c2=O)cc1`, for which the AC40 was 25 µM.
Then `CCC1Oc2ccc(C)cc2N(Cc2cccc(C)c2)C1=O` (configuration not stated), with 13.1 µM; and `C=CCn1c(-c2cc(-c3ccccc3)sc2N)n[nH]c1=S`, with 12.3 µM; and `N=c1sccn1CC(=O)Nc1cc(Cl)ccc1Oc1ccccc1`, with > 26 µM (inactive).
Regarding `CCCc1cc(=O)[nH]c(SCC(=O)Nc2ccc(C)cc2)n1`, the AC40 was > 26 µM (inactive).
Regarding `CCOC(=O)c1cc(C#N)c(SCc2ccc(C#N)cc2)nc1C`, the AC40 was > 26 µM (inactive).
Then `COc1cc(/C=C(/C#N)C(=O)c2c(C)[nH]c3ccccc23)ccc1OCC#N`, with > 26 µM (inactive); and `Cn1ncc(Br)c1C(=O)N1CCOCC1`, with > 26 µM (inactive).
`COc1ccc(-c2nc3scc(-c4ccccc4)n3n2)cc1`: the AC40 is 3.34 µM.
With `CC12CCC3C(CC=C4CC(O)CCC43C)C1C/C(=C\N1CCCC1)C2=O` (configuration not stated), the AC40 is > 26 µM (inactive).
With `Cc1cc(C)cc(NC(=O)CN(C)S(=O)(=O)c2cnc[nH]2)c1`, the AC40 is > 26 µM (inactive).
For `CC(C)C(=O)N1CCC(n2nccc2NC(=O)CCOc2ccccc2)CC1`, the AC40 is 7.78 µM.
With `O=C1c2cccc3c([N+](=O)[O-])ccc(c23)C(=O)N1O`, the AC40 is > 26 µM (inactive).
Regarding `O=C(CCS(=O)(=O)c1ccccc1)Nc1ccccn1`, the AC40 was > 26 µM (inactive).
In the case of `O=C1CC(N2C(=O)/C(=C/C=C/c3ccccc3)SC2=S)C(=O)N1c1ccccc1` (configuration not stated), the AC40 was > 26 µM (inactive).
As to `CC1(C)c2cc(O)ccc2OC1N1CCOCC1` (configuration not stated), the AC40 is > 26 µM (inactive).
Then `COc1cccc(CNc2ccc(Br)cn2)c1O`, with 12.2 µM; and `Cn1c(CN2CCN(C(=O)c3ccc(F)cc3)CC2)nc2cc([N+](=O)[O-])ccc21`, with > 26 µM (inactive); and `COc1cccc(NC(=O)CSc2nc(N)cc(N)n2)c1`, with > 26 µM (inactive).
`CSc1ccccc1-n1nnnc1SCC(=O)NCc1cccs1`: the AC40 was > 26 µM (inactive).
Regarding `C=CCOc1ccc(-c2nc3c(c(=O)[nH]c(=O)n3Cc3ccccc3)n2CCCOC)cc1`, the AC40 is > 26 µM (inactive).
With `Cc1ccc(Nc2c(N)c(=O)oc3ccccc23)cc1`, the AC40 is > 26 µM (inactive).
On to `COC(=O)CC1C(=O)NCCN1C(=O)c1ccc(S(=O)(=O)N2CCOCC2)cc1` (configuration not stated), for which the AC40 is > 26 µM (inactive).
For the compound `CCOc1cc(/C=C2/SC(=S)N(CC3CCCO3)C2=O)ccc1O` (configuration not stated), the AC40 was > 26 µM (inactive).
For the compound `CN(C)CCNC(=O)/C(=C/c1ccc(-c2cccc(Cl)c2)o1)NC(=O)c1ccccc1`, the AC40 was > 26 µM (inactive).
Then `COc1ccc(-c2cc(C(=O)NCc3ccco3)c3ccccc3n2)cc1`, with > 26 µM (inactive); and `Cc1ccc(N2C(=O)CCC2(C#N)c2ccccc2)cc1` (configuration not stated), with > 26 µM (inactive); and `C=CCC(NCc1ccco1)c1ccc(OC)c(OC)c1` (configuration not stated), with > 26 µM (inactive).
With `CSC(=NC#N)N1CCN(c2ccc(Cl)cc2)CC1`, the AC40 is 25.3 µM.
In the case of `Cc1ccccc1NC(=O)C1CCCN(C(=O)NCc2ccccc2)C1` (configuration not stated), the AC40 was > 26 µM (inactive).
`FC(F)(F)c1cccc(NC(=S)NCc2ccccn2)c1`: the AC40 is 7.35 µM.
Take `O=C(CN1CCOCC1)N(c1ccccc1)c1ccc2ccccc2c1`: the AC40 was 14.6 µM.
Turning to `CNc1nc(-c2ccccc2)cc(C)c1S(C)(=O)=O`, the AC40 is > 26 µM (inactive).
`Cc1occc1C(=O)NNS(=O)(=O)c1ccc([N+](=O)[O-])cc1`: the AC40 was > 26 µM (inactive).
`COc1ccc(CCNc2oc(-c3ccccc3OC)nc2C#N)cc1`: the AC40 is > 26 µM (inactive).
With `CN(Cc1ccccc1)C(=O)CCC1CCN(C(=O)CC2=CCCCC2)CC1` the figure was > 26 µM (inactive); with `COc1ccccc1CN1CC(C(=O)NCCc2ncccc2C)CCC1=O` (configuration not stated), 24.8 µM.
Turning to `CC(=O)Oc1ccc(Cn2cnc3cc4ccccc4cc32)cc1`, the AC40 is 14.7 µM.
In the case of `C=CCN(C(=O)CCc1ccccc1OC)c1nc(-c2ccc(S(C)(=O)=O)cc2)cs1`, the AC40 is > 26 µM (inactive).

Source of the values: PubChem BioAssay AID602296 (Broad Institute, 2012).
